From patent publication US12021195B2, “Asymmetric electrolyte salts and batteries incorporating such salts” (OHIO STATE INNOVATION FOUNDATION, priority 2019, dated 2024) come the findings set out here.

Like-named read-outs stand apart in the source and are kept apart here.

Series [1] is described as follows: Ionic conductivity measurements. It is filed as physicochemical. Here is the method:
Ionic Conductivity Measurements A homemade conductivity cell was constructed with two polished stainless steel parallel plates (˜0.3 cm^2) separated by ˜0.2 cm in a Teflon cup. The entire cell was placed in a sealed vial to minimize electrolyte evaporation. To calibrate the cell constant, two conductivity standards (Sigma Aldrich) were used, 25 and […]. The calibrated cell constant was calculated to be 0.706 cm′±0.008 cm^−1. […] […] The electrochemical impedance spectrum was collected from 1 MHz to 0.5 Hz with an AC amplitude of 10 mV. The electrolyte resistance was taken as the impedance where the phase angle is as close to […] as possible in order to minimize any contribution from capacitance or inductance. All conductivity measurements were performed in an argon filled glove box.

A short description of series [2]: Solubility of potassium salts in DME. Conditions: mol fraction of salt.
Series [3] in a line: Cyclic voltammetry, oxidative stability window in diglyme. Here is the method:
The counter electrode was lithium metal. […] The scan rate for each CV measurement was 50 mV/s. The Al dissolution resistance was measured by cyclic voltammetry of a 2-electrode Li∥Al CR2032 coin cell. The potential was swept from 2 V to 6.1 V for a total of 5 cycles. The cell consisted of Li foil and aluminum foil (1.77 cm^2) separated by a 25 μm trilayer celgard membrane (polypropylene-polyethylene-polypropylene).
Since it has been reported that increasing the salt concentration also improves the electrochemical window,^103,107 the stability window of each electrolyte at its highest concentration was examined. In a 3-electrode cell using a platinum working electrode, Li metal counter and a silver wire reference to avoid electrolyte contamination, cyclic voltammetry was used to examine the oxidative window. Multiple scans were collected to see if there was any change with repeat cycling to highly positive voltages (FIG. 5). As a comparison, the most concentrated possible LiTFSI solution (0.2 mol fraction) was also tested.

Series [4] is described as follows: Solubility of lithium salts in diglyme. Format: physicochemical. From the text:
In order to probe structure-property relationships among sulfonamide salts, the ionic conductivity was investigated in diglyme solvent and compared with that of LiTFSI. Ethers such as diglyme have strong Lewis basicity, high chemical stability and can dissolve lithium salts via Li+ cation coordination by the lone pair on the oxygen atom.^105 However, the solubility of LiTFSI is relativity low and cannot access the concentrated electrolyte regime. This is in stark contrast to all of the sulfonamide salts investigated here. The solubility of the salts increase in the order LiTFSI<LiMPSA<LiFBSA≈LiFPSA≈LiDESA. To the best of the inventors' knowledge, in ether solvent, these sulfonamide salts have the highest solubility among any lithium salt (0.4× salt, molar ratio diglyme: Salt […]). The ionic conductivity of these electrolytes were investigated as a function of concentration (FIG. 4). The sulfonamide based electrolytes span a much larger concentration range of up to 0.4 mol fraction, where LiTFSI can only be increased up to 0.2 mol fraction. […] This could be due to reduced viscosity of the electrolytes with fluorinated derivatives as well as the ability of the ether oxygen within LiMPSA and LiDESA to coordinate the lithium cation even at low concentrations in a similar fashion to that of diglyme solvent. […]

Regarding `COCCC[N-]S(=O)(=O)C(F)(F)F.[K+]` [KMPSA], the ionic conductivity in series [1] (0.6× KMPSA/DME electrolyte, 25° C.) stood at 0.037 mS/cm; in series [1] (molten salt, 45° C.), 0.003 mS/cm. Besides, the “solubility (mol fraction that can be reached)” value in series [2] came to 0.6 X.

Turning to `O=S(=O)([N-]S(=O)(=O)C(F)(F)F)C(F)(F)F.[K+]` [KTFSI, potassium bis(trifluoromethanesulfonyl)imide, reference compound], the “solubility (mol fraction that can be reached)” value in series [2] is reported as approximately 0.34 X.

Consider `O=S(=O)([N-]CC(F)(F)C(F)(F)F)C(F)(F)F.[Li+]` [LiFPSA], for which, in series [3], the “oxidative stability window (in words)” value is given as “smallest stability window”. Further, the “ionic conductivity compared with salts with an incorporated ether group” value in series [1] (in diglyme) is “higher ionic conductivity”.

On to `COCCC[N-]S(=O)(=O)C(F)(F)F.[Li+]` [LiMPSA], for which, in series [3], the “oxidative stability window (in words)” value is “one of the highest stabilities” and the “potential out to which cycles after the first show high stability” value is 6-7 V.

Regarding `O=S(=O)([N-]S(=O)(=O)C(F)(F)F)C(F)(F)F.[Li+]` [LiTFSI, lithium bis(trifluoromethanesulfonyl)imide, reference compound], the “potential above which rapid decomposition occurs” value in series [3] (0.2 mol fraction in diglyme, Pt working electrode, 50 mV/s) is reported as “above 5 V”. Besides, in series [3] (each electrolyte at its highest concentration in diglyme (LiTFSI 0.2, LiFPSA 0.4, LiDESA 0.4, LiMPSA 0.33 mol fraction)), the “oxidative stability window (in words)” value is “one of the lowest stabilities”. Further, in series [4], the “solubility (highest concentration reached)” value is reported as “up to 0.2 mol fraction”.
